{"source": "patent US20090048205A1", "about": "“COMBINATION THERAPY WITH SYNTHETIC TRITERPENOIDS AND GEMCITABINE” (priority 2007, published 2009)", "key": {"heme oxygenase-1 (HO-1)": {"tested_on": "heme oxygenase-1 (HO-1)", "conditions": "at nanomolar concentrations; in vitro and in vivo; Liby et al. (2005); cited from earlier work"}, "IKKb": {"biological_target": "T1, IKKb (Homo sapiens, UniProt O14920)", "T1 sequence (O14920 1-756)": "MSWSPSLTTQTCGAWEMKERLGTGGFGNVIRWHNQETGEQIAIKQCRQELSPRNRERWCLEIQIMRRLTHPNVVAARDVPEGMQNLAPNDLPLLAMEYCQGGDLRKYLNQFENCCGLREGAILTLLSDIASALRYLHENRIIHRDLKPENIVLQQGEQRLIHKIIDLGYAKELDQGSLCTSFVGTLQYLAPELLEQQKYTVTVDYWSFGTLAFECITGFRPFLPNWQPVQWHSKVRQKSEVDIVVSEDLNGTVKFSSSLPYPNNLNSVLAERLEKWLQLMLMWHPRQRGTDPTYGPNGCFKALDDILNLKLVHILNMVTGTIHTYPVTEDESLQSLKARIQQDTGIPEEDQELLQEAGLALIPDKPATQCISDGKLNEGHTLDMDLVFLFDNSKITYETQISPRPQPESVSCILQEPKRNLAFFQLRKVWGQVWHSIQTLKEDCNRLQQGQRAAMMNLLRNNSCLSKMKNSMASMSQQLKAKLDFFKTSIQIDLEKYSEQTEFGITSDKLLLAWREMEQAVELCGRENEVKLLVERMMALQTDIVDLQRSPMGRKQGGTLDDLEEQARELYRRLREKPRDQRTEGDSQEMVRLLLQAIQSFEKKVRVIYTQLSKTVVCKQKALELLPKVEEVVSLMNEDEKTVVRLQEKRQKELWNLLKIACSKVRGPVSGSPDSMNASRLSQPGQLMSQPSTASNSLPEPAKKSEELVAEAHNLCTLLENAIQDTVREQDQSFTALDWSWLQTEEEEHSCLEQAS", "conditions": "via binding to Cys179; cited from earlier work"}, "NF-κB": {"tested_on": "NF-κB", "conditions": "human leukemia cell lines and patient samples; Shishodia et al. (2006); cited from earlier work"}, "[1]": {"conditions": "monkeys, equivalent dosages orally in gelatin capsules; Form B versus Form A"}, "[2]": {"tested_on": "Stage IV pancreatic cancer", "conditions": "compared with the combination; cited from earlier work"}, "[3]": {"conditions": "mice; cited from earlier work"}, "[4]": {"conditions": "cited from earlier work"}}}
{"smiles": "CC1(C)CC[C@]2(C(=O)O)CC[C@]3(C)[C@H](C(=O)C=C4[C@@]5(C)C=C(C#N)C(=O)C(C)(C)[C@@H]5CC[C@]43C)[C@@H]2C1", "note": "[CDDO, 2-cyano-3,12-dioxooleana-1,9(11)-dien-28-oic acid]", "values": [{"measurement": "Expression of heme oxygenase-1 (HO-1) enzyme", "setting": "heme oxygenase-1 (HO-1)", "result": "rapidly increase the expression"}]}
{"smiles": "CC1(C)CC[C@]2(C(=O)n3ccnc3)CC[C@]3(C)[C@H](C(=O)C=C4[C@@]5(C)C=C(C#N)C(=O)C(C)(C)[C@@H]5CC[C@]43C)[C@@H]2C1", "note": "[CDDO-Im]", "values": [{"measurement": "Inhibition of IKKb activity", "setting": "IKKb", "result": "direct inhibitors"}, {"measurement": "Expression of heme oxygenase-1 (HO-1) enzyme", "setting": "heme oxygenase-1 (HO-1)", "result": "rapidly increase the expression"}]}
{"smiles": "COC(=O)[C@]12CCC(C)(C)CC1C1C(=O)C=C3[C@@]4(C)C=C(C#N)C(=O)C(C)(C)[C@@H]4CC[C@@]3(C)[C@]1(C)CC2", "note": "(stereo partly shown) [CDDO-Me]", "values": [{"measurement": "Inhibition of constitutive and inducible NF-κB", "setting": "NF-κB", "result": "potently inhibits"}, {"measurement": "Inhibition of IKKb activity", "setting": "IKKb", "result": "direct inhibitors"}]}
{"smiles": "COC(=O)[C@]12CCC(C)(C)C[C@H]1[C@H]1C(=O)C=C3[C@@]4(C)C=C(C#N)C(=O)C(C)(C)[C@@H]4CC[C@@]3(C)[C@]1(C)CC2", "note": "[Form B]", "values": [{"measurement": "Bioavailability", "setting": "[1]", "result": "surprisingly better than that of Form A"}]}
{"smiles": "Nc1ccn([C@@H]2O[C@H](CO)[C@@H](O)C2(F)F)c(=O)n1", "note": "[gemcitabine, 2′,2′-difluoro-2′-deoxycytidine]", "values": [{"measurement": "Clinical activity of gemcitabine alone (historical)", "setting": "[2]", "result": "has not produced this level of clinical activity"}, {"measurement": "Maximum tolerated dose", "setting": "[3]", "result": 300, "unit": "mg/kg/dose"}, {"measurement": "Maximum administered dose", "setting": "[4]; humans", "result": 1000, "unit": "mg/m^2"}, {"measurement": "Dose reported to be tolerated in patients", "setting": "[4]; prolonged infusion for up to 12 hours", "result": 10, "unit": "mg/m^2/min"}]}
